# According to BigSolDB 2.1:
smiles,measurement,setting,value
COc1ccccc1N1CCN(CC(O)COc2cccc3ccccc23)CC1 (stereo not given),solubility (mole fraction),"in DMSO, 293.15 K",0.0283
same,solubility (mole fraction),"in DMSO, 298.15 K",0.0323
same,solubility (mole fraction),"in DMSO, 303.15 K",0.0367
same,solubility (mole fraction),"in DMSO, 308.15 K",0.0416
same,solubility (mole fraction),"in DMSO, 313.15 K",0.0468
same,solubility (mole fraction),"in DMSO, 318.15 K",0.0527
same,solubility (mole fraction),"in DMSO, 323.15 K",0.059
same,solubility (mole fraction),"in DMSO, 328.15 K",0.066
same,solubility (mole fraction),"in ethanol, 288.15 K",0.00142
same,solubility (mole fraction),"in ethanol, 293.15 K",0.00163
same,solubility (mole fraction),"in ethanol, 298.15 K",0.00189
same,solubility (mole fraction),"in ethanol, 303.15 K",0.00216
same,solubility (mole fraction),"in ethanol, 308.15 K",0.00244
same,solubility (mole fraction),"in ethanol, 313.15 K",0.00277
same,solubility (mole fraction),"in ethanol, 318.15 K",0.00314
same,solubility (mole fraction),"in ethanol, 323.15 K",0.00355
same,solubility (mole fraction),"in ethanol, 328.15 K",0.00397
same,solubility (mole fraction),"in isopropanol, 288.15 K",0.000714
same,solubility (mole fraction),"in isopropanol, 293.15 K",0.000827
same,solubility (mole fraction),"in isopropanol, 298.15 K",0.000959
same,solubility (mole fraction),"in isopropanol, 303.15 K",0.00111
same,solubility (mole fraction),"in isopropanol, 308.15 K",0.00127
same,solubility (mole fraction),"in isopropanol, 313.15 K",0.00145
same,solubility (mole fraction),"in isopropanol, 318.15 K",0.00165
same,solubility (mole fraction),"in isopropanol, 323.15 K",0.00186
same,solubility (mole fraction),"in isopropanol, 328.15 K",0.00213
same,solubility (mole fraction),"in water, 288.15 K",2.07e-06
same,solubility (mole fraction),"in water, 293.15 K",2.69e-06
same,solubility (mole fraction),"in water, 298.15 K",3.46e-06
same,solubility (mole fraction),"in water, 303.15 K",4.43e-06
same,solubility (mole fraction),"in water, 308.15 K",5.65e-06
same,solubility (mole fraction),"in water, 313.15 K",7.05e-06
same,solubility (mole fraction),"in water, 318.15 K",8.85e-06
same,solubility (mole fraction),"in water, 323.15 K",1.09e-05
same,solubility (mole fraction),"in water, 328.15 K",1.37e-05
